Experimental data taken from patent US9617253B2, “Molecules having pesticidal utility, and intermediates, compositions, and processes, related thereto” (Dow AgroSciences LLC, priority 2015, dated 2017).

Experiments:
[1] = system: Cabbage Looper (Trichoplusia ni, TRIPNI); test: Bioassay on Cabbage Looper (CL), 128-well diet tray assay; assay type: in vivo; details: 168 h, second instar CL larvae, 50 μg/cm^2 on artificial diet, 25° C., five to seven days, average of eight wells, read-out: CL % Control (or Mortality) rating
Experimental: (§1) Certain molecules disclosed in this document were tested against BAW and CL using procedures described in the following examples. In the reporting of the results, the “BAW & CL Rating Table” was used (See Table Section).
Bioassays on CL were conducted using a 128-well diet tray assay. One to five second instar CL larvae were placed in each well (3 mL) of the diet tray that had been previously filled with 1 mL of artificial diet to which 50 μg/cm^2 of the test molecule (dissolved in 50 μL of 90:10 acetone-water mixture) had been applied (to each of eight wells) and then allowed to dry. Trays were covered with a clear self-adhesive cover, vented to allow gas exchange, and held at 25° C., 14:10 light-dark for five to seven days. Percent mortality was recorded for the larvae in each well; activity in the eight wells was then averaged. The results are indicated in the table entitled “Table ABC: Biological Results” (See Table Section).

[2] = system: Beet Armyworm (Spodoptera exigua, LAPHEG); test: Bioassay on Beet Armyworm (BAW), 128-well diet tray assay; assay type: in vivo; details: 168 h, second instar BAW larvae, 50 μg/cm^2 on artificial diet, 25° C., five to seven days, average of eight wells, read-out: BAW % Control (or Mortality) rating
Experimental: as §1
Bioassays on BAW were conducted using a 128-well diet tray assay. One to five second instar BAW larvae were placed in each well (3 mL) of the diet tray that had been previously filled with 1 mL of artificial diet to which 50 μg/cm^2 of the test molecule (dissolved in 50 μL of 90:10 acetone-water mixture) had been applied (to each of eight wells) and then allowed to dry. Trays were covered with a clear self-adhesive cover, vented to allow gas exchange, and held at 25° C., 14:10 light-dark for five to seven days. Percent mortality was recorded for the larvae in each well; activity in the eight wells was then averaged. The results are indicated in the table entitled “Table ABC: Biological Results” (See Table Section).

melting point [°C] | Structure (SMILES) | mortality at 50 µg/cm2 [1] [%] | mortality at 50 µg/cm2 [2] [%]
165 to 167 | COCc1ccc(C)cc1N1C(=O)CS/C1=N\C(=O)Nc1ccc(OCc2ncn(-c3ccc(OC(F)(F)F)cc3)n2)cc1 | – | –
132 to 134 | COCc1ccc(C)cc1N1C(=O)CS/C1=N\C(=O)Nc1ccc(OCc2ncn(-c3ccc(OC(F)(F)F)cc3)n2)cc1F | – | –
147 to 152 | COC(C)c1ccc(C)cc1N1C(=O)CS/C1=N\C(=O)Nc1c(F)cc(OCc2ncn(-c3ccc(OC(F)(F)F)cc3)n2)cc1F (stereo not shown) | – | –
169 to 172 | CCCc1ccc(C)cc1N1C(=O)CS/C1=N\C(=O)Nc1c(F)cc(OCc2ncn(-c3ccc(OC(F)(F)F)cc3)n2)cc1F | – | –
– | Cc1ccc(C(C)C)c(N2C(=O)CS/C2=N\C(=O)Nc2ccc(COc3ncn(-c4ccc(OC(F)(F)F)cc4)n3)c(F)c2)c1 [F3, (Z)-1-(3-Fluoro-4-(((1-(4-(trifluoromethoxy)phenyl)-1H-1,2,4-triazol-3-yl)oxy)methyl)phenyl)-3-(3-(2-isopropyl-5-methylphenyl)-4-oxothiazolidin-2-ylidene)urea] | 50 to 100 | 50 to 100
– | Cc1ccc(C(C)C)c(N2C(=O)CS/C2=N\C(=O)Nc2ccc(COc3ncn(-c4ccc(OC(F)(F)F)cc4)n3)cn2)c1 [F14, (Z)-1-(3-(2-Isopropyl-5-methylphenyl)-4-oxothiazolidin-2-ylidene)-3-(5-(((1-(4-(trifluoromethoxy)phenyl)-1H-1,2,4-triazol-3-yl)oxy)methyl)pyridin-2-yl)urea] | 50 to 100 | 50 to 100
– | COCc1ccc(C)cc1N1C(=O)CS/C1=N\C(=O)Nc1ccc(OCc2ncn(-c3ccc(OC(F)(F)F)cc3)n2)cc1OC [F34, (Z)-1-(2-Methoxy-4-((1-(4-(trifluoromethoxy)phenyl)-1H-1,2,4-triazol-3-yl)methoxy)phenyl)-3-(3-(2-(methoxymethyl)-5-methylphenyl)-4-oxothiazolidin-2-ylidene)urea] | 50 to 100 | 50 to 100
148 to 150 | COCc1ccc(C)cc1N1C(=O)CS/C1=N\C(=O)Nc1ccc(OCc2ncn(-c3ccc(OC(F)(F)F)cc3)n2)cc1Cl | – | –
– | Cc1ccc(C(C)C)c(N2C(=O)CS/C2=N\C(=O)Nc2ccc(OCc3ncn(-c4ccc(OC(F)(F)F)cc4)n3)c(F)c2)c1 [F35, (Z)-1-(3-Fluoro-4-((1-(4-(trifluoromethoxy)phenyl)-1H-1,2,4-triazol-3-yl)methoxy)phenyl)-3-(3-(2-isopropyl-5-methylphenyl)-4-oxothiazolidin-2-ylidene)urea] | 50 to 100 | 50 to 100
– | Cc1ccc(C(C)C)c(N2C(=O)CS/C2=N\C(=O)Nc2ccc(OCc3ncn(-c4ccc(OC(F)(F)F)cc4)n3)cc2F)c1 [F16, (Z)-1-(2-Fluoro-4-((1-(4-(trifluoromethoxy)phenyl)-1H-1,2,4-triazol-3-yl)methoxy)phenyl)-3-(3-(2-isopropyl-5-methylphenyl)-4-oxothiazolidin-2-ylidene)urea] | 50 to 100 | 50 to 100
– | Cc1ccc(C(C)C)c(N2C(=O)CS/C2=N\C(=O)Nc2ccc(COc3ncn(-c4ccc(OC(F)(F)F)cc4)n3)cc2)c1 [F1, (Z)-1-(3-(2-isopropyl-5-methylphenyl)-4-oxothiazolidin-2-ylidene)-3-(4-(((1-(4-(trifluoromethoxy)phenyl)-1H-1,2,4-triazol-3-yl)oxy)methyl)phenyl)urea] | 50 to 100 | 50 to 100
– | COCc1ccc(C)cc1N1C(=O)CS/C1=N\C(=O)Nc1ccc(OCc2ncn(-c3ccc(OC(F)(F)F)cc3)n2)nc1 [F46, (Z)-1-(3-(2-(Methoxymethyl)-5-methylphenyl)-4-oxothiazolidin-2-ylidene)-3-(6-((1-(4-(trifluoromethoxy)phenyl)-1H-1,2,4-triazol-3-yl)methoxy)pyridin-3-yl)urea] | 0 | 0 to 50
– | CCCc1ccc(C)cc1N1C(=O)CS/C1=N\C(=O)Nc1ccc(OCc2ncn(-c3ccc(OC(F)(F)F)cc3)n2)c(F)c1 [F36, (Z)-1-(3-Fluoro-4-((1-(4-(trifluoromethoxy)phenyl)-1H-1,2,4-triazol-3-yl)methoxy)phenyl)-3-(3-(5-methyl-2-propylphenyl)-4-oxothiazolidin-2-ylidene)urea] | 50 to 100 | 50 to 100
– | Cc1ccc(C(C)C)c(N2C(=O)CS/C2=N\C(=O)Nc2ccc(OCc3ncn(-c4ccc(OC(F)(F)F)cc4)n3)cc2C)c1 [F25, (Z)-1-(3-(2-Isopropyl-5-methylphenyl)-4-oxothiazolidin-2-ylidene)-3-(2-methyl-4-((1-(4-(trifluoromethoxy)phenyl)-1H-1,2,4-triazol-3-yl)methoxy)phenyl)urea] | 50 to 100 | 50 to 100
– | Cc1ccc(C(C)C)c(N2C(=O)CS/C2=N\C(=O)Nc2ccc(COc3ncn(-c4ccc(OC(F)(F)F)cc4)n3)cc2F)c1 [F2, (Z)-1-(2-Fluoro-4-(((1-(4-(trifluoromethoxy)phenyl)-1H-1,2,4-triazol-3-yl)oxy)methyl)phenyl)-3-(3-(2-isopropyl-5-methylphenyl)-4-oxothiazolidin-2-ylidene)urea] | 50 to 100 | 50 to 100
– | COCc1ccc(C)cc1N1C(=O)CS/C1=N\C(=O)Nc1ccc(OCc2ncn(-c3ccc(OC(F)(F)F)cc3)n2)cc1C [F27, (Z)-1-(3-(2-(Methoxymethyl)-5-methylphenyl)-4-oxothiazolidin-2-ylidene)-3-(2-methyl-4-((1-(4-(trifluoromethoxy)phenyl)-1H-1,2,4-triazol-3-yl)methoxy)phenyl)urea] | 50 to 100 | 50 to 100
– | COC(C)c1ccc(C)cc1N1C(=O)CS/C1=N\C(=O)Nc1ccc(OCc2ncn(-c3ccc(OC(F)(F)F)cc3)n2)cc1F (stereo not shown) [F20, (Z)-1-(2-Fluoro-4-((1-(4-(trifluoromethoxy)phenyl)-1H-1,2,4-triazol-3-yl)methoxy)phenyl)-3-(3-(2-(1-methoxyethyl)-5-methylphenyl)-4-oxothiazolidin-2-ylidene)urea] | 50 to 100 | 50 to 100
– | CCCc1ccc(C)cc1N1C(=O)CS/C1=N\C(=O)Nc1ccc(OCc2ncn(-c3ccc(OC(F)(F)F)cc3)n2)nc1 [F45, (Z)-1-(3-(5-Methyl-2-propylphenyl)-4-oxothiazolidin-2-ylidene)-3-(6-((1-(4-(trifluoromethoxy)phenyl)-1H-1,2,4-triazol-3-yl)methoxy)pyridin-3-yl)urea] | 0 | 0 to 50
– | COCc1ccc(C)cc1N1C(=O)CS/C1=N\C(=O)Nc1c(F)cc(OCc2ncn(-c3ccc(OC(F)(F)F)cc3)n2)cc1F [F19, (Z)-1-(2,6-Difluoro-4-((1-(4-(trifluoromethoxy)phenyl)-1H-1,2,4-triazol-3-yl)methoxy)phenyl)-3-(3-(2-(methoxymethyl)-5-methylphenyl)-4-oxothiazolidin-2-ylidene)urea] | 50 to 100 | 50 to 100
– | Cc1ccc(C(C)C)c(N2C(=O)CS/C2=N\C(=O)Nc2c(F)cc(OCc3ncn(-c4ccc(OC(F)(F)F)cc4)n3)cc2F)c1 [F18, (Z)-1-(2,6-Difluoro-4-((1-(4-(trifluoromethoxy)phenyl)-1H-1,2,4-triazol-3-yl)methoxy)phenyl)-3-(3-(2-isopropyl-5-methylphenyl)-4-oxothiazolidin-2-ylidene)urea] | 50 to 100 | 50 to 100
– | CCCc1ccc(C)cc1N1C(=O)CS/C1=N\C(=O)Nc1ccc(COc2ncn(-c3ccc(OC(F)(F)F)cc3)n2)cc1F [F6, (Z)-1-(2-Fluoro-4-(((1-(4-(trifluoromethoxy)phenyl)-1H-1,2,4-triazol-3-yl)oxy)methyl)phenyl)-3-(3-(5-methyl-2-propylphenyl)-4-oxothiazolidin-2-ylidene)urea] | 50 to 100 | 50 to 100
